pIC50: −log10 of the molar value.
Key:
[1] = target: T1, recombinant Rho kinase II (ROKα) (Homo sapiens, UniProt O75116); assay: Inhibition of recombinant Rho kinase II (ROKα), 33P uptake into S6 substrate peptide; assay type: biochemical; settings: 33P-ATP, S6 phosphate-acceptor peptide, 20 min at 37° C., vs solvent control
T1 construct: purchased Upstate Biotechnology
Experimental: (§1) The inhibition of the enzyme is investigated in an in vitro assay with recombinant Rho kinase II. The vessel-relaxing action is determined using phenylephrin-induced contractions of isolated rings of the saphenous artery of rabbits.
Inhibition of Recombinant Rho Kinase II (ROKα)
The activity of Rho kinase is determined by the uptake of ^33P phosphate into a substrate peptide. To this end, commercially available Rho kinase II (Upstate Biotechnology) is pre-incubated at 37° C. in the presence of the S6 phosphate-acceptor peptide with the test substances or a solvent control for 10 min. The kinase reaction is then started by addition of ^33P-labelled ATP. After 20 min at 37° C., the reaction is stopped by addition of H3PO4. Aliquots are pipetted onto filters and the filters are washed and then covered with scintillator. The radioactivity of the ^33P-labelled peptides bound to the filter is measured in a Micro-Beta counter.

[2] = system: isolated rings of the saphenous artery of rabbits; assay: Vessel-relaxing action in vitro, phenylephrin-induced contractions of isolated saphenous artery rings; design: species or system rabbit; settings: Oryctolagus cuniculus; contraction induced by 3×10^−8 g of phenylephrin/ml; concentration reducing control contraction by 50%
Experimental: as §1
Vessel-Relaxing Action In Vitro
Individual 3-mm-wide rings of the isolated saphenous artery of rabbits are introduced into 5 ml organ baths with Krebs-Henseleit solution (37° C., gassed with carbogen). The vessel tone is monitored isometrically and registered. Contractions are induced by addition of 3×10^−8 g of phenylephrin/ml, which is washed out again after 4 min. After a number of control cycles, the rings are pre-incubated with the substance to be examined, with the dosage being increased for each further cycle, and the subsequent contraction is compared to the intensity of the last control contraction.

T1 sequence (O75116 whole entry): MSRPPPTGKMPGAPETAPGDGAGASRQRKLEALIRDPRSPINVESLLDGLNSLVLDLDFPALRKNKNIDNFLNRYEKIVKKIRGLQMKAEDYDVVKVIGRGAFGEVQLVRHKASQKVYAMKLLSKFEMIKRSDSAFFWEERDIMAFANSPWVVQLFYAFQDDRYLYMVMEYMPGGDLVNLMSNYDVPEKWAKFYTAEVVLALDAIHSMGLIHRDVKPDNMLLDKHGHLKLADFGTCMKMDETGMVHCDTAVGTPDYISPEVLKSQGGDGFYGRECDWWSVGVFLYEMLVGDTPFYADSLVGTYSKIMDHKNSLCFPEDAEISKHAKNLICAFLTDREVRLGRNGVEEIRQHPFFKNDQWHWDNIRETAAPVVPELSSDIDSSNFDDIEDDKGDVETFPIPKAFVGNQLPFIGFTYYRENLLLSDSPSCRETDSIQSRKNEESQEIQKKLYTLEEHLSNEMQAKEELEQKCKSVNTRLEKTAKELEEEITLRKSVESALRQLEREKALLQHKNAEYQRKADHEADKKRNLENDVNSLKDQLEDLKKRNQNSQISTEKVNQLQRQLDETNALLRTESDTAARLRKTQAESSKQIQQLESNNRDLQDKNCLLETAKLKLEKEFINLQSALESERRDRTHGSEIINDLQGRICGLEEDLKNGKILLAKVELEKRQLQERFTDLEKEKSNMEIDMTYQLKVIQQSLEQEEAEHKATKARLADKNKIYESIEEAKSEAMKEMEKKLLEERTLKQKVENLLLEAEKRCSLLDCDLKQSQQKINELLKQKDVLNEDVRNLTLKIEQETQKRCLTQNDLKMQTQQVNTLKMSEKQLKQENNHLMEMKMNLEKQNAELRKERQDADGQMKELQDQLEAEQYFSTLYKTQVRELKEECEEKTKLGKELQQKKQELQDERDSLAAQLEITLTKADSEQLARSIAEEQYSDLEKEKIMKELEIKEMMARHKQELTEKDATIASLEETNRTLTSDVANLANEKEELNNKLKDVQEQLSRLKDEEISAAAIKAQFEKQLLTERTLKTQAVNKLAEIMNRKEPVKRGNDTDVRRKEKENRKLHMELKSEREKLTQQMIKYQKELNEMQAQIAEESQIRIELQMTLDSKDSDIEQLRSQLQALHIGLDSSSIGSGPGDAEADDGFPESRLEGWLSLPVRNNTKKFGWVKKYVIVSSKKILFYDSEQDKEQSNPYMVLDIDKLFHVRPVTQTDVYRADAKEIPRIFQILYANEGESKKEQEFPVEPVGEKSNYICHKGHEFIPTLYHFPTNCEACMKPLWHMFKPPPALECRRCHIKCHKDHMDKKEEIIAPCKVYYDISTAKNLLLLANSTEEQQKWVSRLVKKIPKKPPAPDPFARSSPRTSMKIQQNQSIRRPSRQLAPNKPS

SMILES | pIC50 [1] | pIC50 [2]
Nc1nc(Nc2ccc(Oc3ccc4[nH]ncc4c3)c(F)c2)cc(-c2ccccc2)n1 [Example 18, N-(2-Amino-6-phenyl-4-pyrimidinyl)-N-[3-fluoro-4-(1H-indazol-5-yloxy)phenyl]amine] | 7.37 | 
Nc1nc(Nc2ccc(Oc3ccc4cn[nH]c4c3)c(F)c2)cc(-c2ccncc2)n1 [Example 7] |  | 5.17
CN(CCO)CC1CCN(c2cc(Nc3ccc(Oc4ccnc5[nH]ccc45)c(F)c3)nc(N)n2)C1 (centres unmarked) [Example 68] | 9.00 | 6.59
Nc1nc(Nc2ccc(Oc3ccc4[nH]ncc4c3)c(Cl)c2)cc(-c2ccncc2)n1 [Example 6] | 7.52 | 5.36
Cc1n[nH]c2cccc(Oc3ccc(Nc4cc(-c5ccncc5)nc(N)n4)cc3F)c12 [Example 1, N-[2-Amino-6-(4-pyridinyl)-4-pyrimidinyl]-N-{3-fluoro-4-[(3-methyl-1H-indazol-4-yl)oxy]phenyl}amine] |  | 5.17
Nc1nc(Nc2ccc(Oc3ccc4[nH]ncc4c3)c(F)c2)cc(N2C[C@@H]3CCCN[C@@H]3C2)n1 [Example 12] | 7.26 | 5.57
CC(C)(C)NCc1cc(Nc2ccc(Oc3ccnc4[nH]ccc34)c(F)c2)nc(N)n1 [Example 116] |  | 6.82

The next lines start with the values.

pIC50 [1] | pIC50 [2] | SMILES
7.70 |  | Nc1nc(Nc2ccc(Oc3ccc4[nH]ncc4c3)c(Cl)c2)cc(N[C@@H]2CCCC[C@H]2N)n1 [Example 15]
 | 7.10 | Nc1nc(CN2CCCCC2)cc(Nc2ccc(Oc3ccnc4[nH]ccc34)c(F)c2)n1 [Example 117, N^4-[3-Fluoro-4-(1H-pyrrolo[2,3-b]pyridin-4-yloxy)phenyl]-6-(piperidin-1-ylmethyl)-pyrimidine-2,4-diamine]
7.70 | 5.99 | Nc1nc(Nc2ccc(Oc3ccc4[nH]ncc4c3)c(F)c2)cc(-c2ccncc2)n1 [Example 5, N-[2-Amino-6-(4-pyridinyl)-4-pyrimidinyl]-N-[3-fluoro-4-(1H-indazol-5-yloxy)-phenyl]amine]
7.30 | 5.16 | Nc1nc(Nc2ccc(Oc3ccc4[nH]ncc4c3)c(F)c2)cc(N[C@@H]2CCCC[C@H]2N)n1 [Example 16]
8.05 | 5.70 | Nc1nc(Nc2ccc(Oc3ccc4[nH]ncc4c3)c(Cl)c2)cc(N2C[C@H]3CCCN[C@H]3C2)n1 [Example 13]
8.22 | 6.46 | Nc1nc(Nc2ccc(Oc3ccc4[nH]ncc4c3)c(F)c2)cc(N2C[C@H]3CCCN[C@H]3C2)n1 [Example 11, 6-[(4aR,7aR)-Octahydro-6H-pyrrolo[3,4-b]pyridin-6-yl]-N-4-[3-fluoro-4-(1H-indazol-5-yloxy)phenyl]-2,4-pyrimidinediamine]
